In BindingDB's records for doi:10.1021/jm960837y (Boehringer Ingelheim Pharmaceuticals, 1997):

How the values were obtained:
[1] = biological target: T1, Gag-Pol polyprotein [600-1027,P835L]/[600-1155,P835L] (Human immunodeficiency virus 1, UniProt P03366, P835L); assay: HIV-1 RT Assay
T1 construct: 600-1027; 600-1155
Source text: (§1) The IC50 of reverse transcriptase is the concentration that inhibits 50% of recombinant HIV-1 RT RNA-directed DNA polymerase activity in vitro.

[2] = biological target: T2, Gag-Pol polyprotein [600-1027,Y787L]/[600-1155,Y787L] (Human immunodeficiency virus 1, UniProt P03366, Y787L); assay: HIV-1 RT Assay; conditions: pH 7.8; 22 °C
T2 construct: 600-1027; 600-1155
Source text: as §1

Row | Structure (SMILES) | IC50 [1] | IC50 [2]
1 | CCN1c2ncccc2C(=O)N(C)c2ccc(-c3c[nH]c4cnccc34)nc21 [2-ethyl-9-methyl-5-{1H-pyrrolo[2,3-c]pyridin-3-yl}-2,4,9,15-tetraazatricyclo[9.4.0.0^{3,8}]pentadeca-1(11),3(8),4,6,12,14-hexaen-10-one] | < 1 nM | 
2 | CCN1c2ncccc2C(=O)N(C)c2ccc(-c3cc[nH]c3)nc21 [2-ethyl-9-methyl-5-(1H-pyrrol-3-yl)-2,4,9,15-tetraazatricyclo[9.4.0.0^{3,8}]pentadeca-1(11),3(8),4,6,12,14-hexaen-10-one] | 130 nM | 100 nM
